A word on the Ki: it is a measure of affinity in units of concentration, obtained from inhibition or displacement.

This passage reports Ki results from patent US8461328B2, “Tricyclic heterocyclic compounds, compositions and methods of use thereof” (Genentech, Inc., priority 2010, dated 2013).

Molecules are shown by their SMILES.

Holding throughout (format): biochemical
In one test the target is T1, TYK2 (Homo sapiens, UniProt P29597).
T1 construct: made in house; host or cells: SF9 insect cells (baculovirus)
T1 sequence (P29597 873-1187): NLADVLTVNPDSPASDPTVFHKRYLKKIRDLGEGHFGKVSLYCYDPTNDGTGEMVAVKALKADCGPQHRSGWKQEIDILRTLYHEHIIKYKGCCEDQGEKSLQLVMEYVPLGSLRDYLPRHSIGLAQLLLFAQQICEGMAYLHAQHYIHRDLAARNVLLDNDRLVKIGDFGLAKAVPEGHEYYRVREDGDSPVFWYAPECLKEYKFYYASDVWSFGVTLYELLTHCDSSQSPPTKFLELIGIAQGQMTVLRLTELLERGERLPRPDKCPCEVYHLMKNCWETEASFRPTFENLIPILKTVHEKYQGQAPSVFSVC
Description: TYK2 inhibition (Table 4).

The next test has as its target T2, JAK3 (Homo sapiens, UniProt P52333).
T2 construct: made in house; host or cells: SF9 insect cells (baculovirus)
The test can be described thus: JAK3 inhibition (Table 4). The conditions noted are these: read-out: JAK3 Ki.

The target of another test is T3, JAK1 (Homo sapiens, UniProt P23458).
T3 construct: made in house; host or cells: SF9 insect cells (baculovirus)
Description: JAK1 inhibition (Table 4). The conditions noted are these: read-out: JAK1 Ki.

The target in another test is T4, JAK2 (Homo sapiens, UniProt O60674).
T4 construct: made in house; host or cells: SF9 insect cells (baculovirus)
Description: JAK2 inhibition (Table 4). To be noted: read-out: JAK2 Ki.

T4 sequence (O60674 812-1132): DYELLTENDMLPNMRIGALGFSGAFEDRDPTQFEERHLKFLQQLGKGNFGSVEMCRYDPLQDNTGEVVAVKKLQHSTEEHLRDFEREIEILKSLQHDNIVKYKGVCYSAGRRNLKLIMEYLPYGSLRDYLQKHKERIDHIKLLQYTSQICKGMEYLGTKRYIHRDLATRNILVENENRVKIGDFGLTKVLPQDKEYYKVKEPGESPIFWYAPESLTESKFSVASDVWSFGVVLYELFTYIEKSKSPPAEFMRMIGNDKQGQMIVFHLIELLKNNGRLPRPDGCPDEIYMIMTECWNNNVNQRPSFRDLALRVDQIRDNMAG
T3 sequence (P23458 852-1154): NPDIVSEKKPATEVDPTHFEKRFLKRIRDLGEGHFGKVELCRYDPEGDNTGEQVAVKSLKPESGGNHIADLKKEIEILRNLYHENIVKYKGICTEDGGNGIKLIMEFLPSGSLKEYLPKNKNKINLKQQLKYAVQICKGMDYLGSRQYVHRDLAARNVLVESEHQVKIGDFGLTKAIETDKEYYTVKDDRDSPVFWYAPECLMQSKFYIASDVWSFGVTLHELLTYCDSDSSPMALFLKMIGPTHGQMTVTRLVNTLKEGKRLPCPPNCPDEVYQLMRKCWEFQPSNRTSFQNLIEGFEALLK
T2 sequence (P52333 783-1124): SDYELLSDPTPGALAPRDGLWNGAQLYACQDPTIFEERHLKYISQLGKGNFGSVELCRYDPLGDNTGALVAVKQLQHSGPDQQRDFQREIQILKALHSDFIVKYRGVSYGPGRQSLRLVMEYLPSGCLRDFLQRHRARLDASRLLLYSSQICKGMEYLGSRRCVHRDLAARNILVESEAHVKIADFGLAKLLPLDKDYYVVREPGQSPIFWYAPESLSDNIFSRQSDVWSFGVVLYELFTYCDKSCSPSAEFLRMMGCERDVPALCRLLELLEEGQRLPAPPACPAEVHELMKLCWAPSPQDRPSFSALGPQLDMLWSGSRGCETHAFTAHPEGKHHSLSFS

As for `CCC(C)S(=O)(=O)NCCc1nc2cnc3[nH]ccc3c2n1C1CCN(CCC#N)CC1` (racemic) [Example 369, Butane-2-sulfonic acid (2-{1-[1-(2-cyano-ethyl)-piperidin-4-yl]-1,6-dihydro-1,3,5,6-tetraaza-as-indacen-2-yl}-ethyl)-amide], the Ki is 0.0718 µM at TYK2, 0.0255 µM at JAK3, 0.00274 µM on JAK1 and 0.0144 µM at JAK2.
The like results for `CN1CC(c2nc3cnc4[nH]ccc4c3n2C2CCN(CCC#N)CC2)CC1=O` (racemic) [Example 384, 3-{4-[2-(1-Methyl-5-oxo-pyrrolidin-3-yl)-6H-1,3,5,6-tetraaza-as-indacen-1-yl]-piperidin-1-yl}-propionitrile] were, in that order, 0.526 µM, 0.0481 µM, 0.0175 µM and 0.138 µM.
`CC(C)N1CC(c2nc3cnc4[nH]ccc4c3n2C2CCN(CCC#N)CC2)CC1=O` (racemic) [Example 388, 3-{4-[2-(1-Isopropyl-5-oxo-pyrrolidin-3-yl)-6H-1,3,5,6-tetraaza-as-indacen-1-yl]-piperidin-1-yl}-propionitrile]: the Ki amounted to 0.446 µM on TYK2, 0.0773 µM on JAK3, 0.0236 µM at JAK1 and 0.167 µM at JAK2.
On the same counts, the results for `CC(=O)N1CCC(c2nc3cnc4[nH]ccc4c3n2C2CCN(CCC#N)CC2)C1` (racemic) [Example 390, 3-{4-[2-(1-Acetyl-pyrrolidin-3-yl)-6H-1,3,5,6-tetraaza-as-indacen-1-yl]-piperidin-1-yl}-propionitrile] are 0.446 µM, 0.0479 µM, 0.0215 µM and 0.0756 µM.
The like results for `CC(CC#N)N1CCC(n2c(C3CCOC3)nc3cnc4[nH]ccc4c32)CC1` (racemic) [Example 391, 3-{4-[2-(Tetrahydro-furan-3-yl)-6H-1,3,5,6-tetraaza-as-indacen-1-yl]-piperidin-1-yl}-butyronitrile] were, in that order, 0.0919 µM, 0.0358 µM, 0.00753 µM and 0.0271 µM.
On the same counts, the results for `CC(CC#N)N1CCC(n2c(C3CCC3)nc3cnc4[nH]ccc4c32)CC1` (racemic) [Example 392, 3-[4-(2-Cyclobutyl-6H-1,3,5,6-tetraaza-as-indacen-1-yl)-piperidin-1-yl]-butyronitrile] are 0.128 µM, 0.0339 µM, 0.00667 µM and 0.0167 µM.
As for `CC(CC#N)N1CCC(n2c(C3CCOCC3)nc3cnc4[nH]ccc4c32)CC1` (racemic) [Example 393, 3-{4-[2-(Tetrahydro-pyran-4-yl)-6H-1,3,5,6-tetraaza-as-indacen-1-yl]-piperidin-1-yl}-butyronitrile], the Ki at TYK2 worked out at 0.382 µM; at JAK3, 0.0299 µM; on JAK1, 0.0456 µM; at JAK2 it was 0.0447 µM.
Regarding `CC(CC#N)N1CCC(n2c(CCn3cncn3)nc3cnc4[nH]ccc4c32)CC1` (racemic) [Example 394, 3-{4-[2-(2-[1,2,4]Triazol-1-yl-ethyl)-6H-1,3,5,6-tetraaza-as-indacen-1-yl]-piperidin-1-yl}-butyronitrile], the Ki came out at 0.17 µM at TYK2, 0.152 µM on JAK3, 0.0183 µM on JAK1 and 0.0379 µM at JAK2.
The like results for `CC(CC#N)N1CCC(n2c(C3CC(=O)N(C)C3)nc3cnc4[nH]ccc4c32)CC1` (racemic) [Example 395, 3-{4-[2-(1-Methyl-5-oxo-pyrrolidin-3-yl)-6H-1,3,5,6-tetraaza-as-indacen-1-yl]-piperidin-1-yl}-butyronitrile] were, in that order, 0.245 µM, 0.0965 µM, 0.0177 µM and 0.073 µM.
On the same counts, the results for `CC(CC#N)N1CCC(n2c(CS(C)(=O)=O)nc3cnc4[nH]ccc4c32)CC1` (racemic) [Example 396, 3-[4-(2-Methanesulfonylmethyl-6H-1,3,5,6-tetraaza-as-indacen-1-yl)-piperidin-1-yl]-butyronitrile] are 0.095 µM, 0.0181 µM, 0.0155 µM and 0.0359 µM.
Turning to `CC(=O)N1CCC(c2nc3cnc4[nH]ccc4c3n2C2CCN(C(C)CC#N)CC2)C1` (racemic) [Example 397, 3-{4-[2-(1-Acetyl-pyrrolidin-3-yl)-6H-1,3,5,6-tetraaza-as-indacen-1-yl]-piperidin-1-yl}-butyronitrile], the Ki at TYK2 was found to be 0.269 µM; on JAK3, 0.114 µM; on JAK1, 0.0299 µM; on JAK2 it was 0.0624 µM.
On the same counts, the results for `CC(=O)N(C)CCc1nc2cnc3[nH]ccc3c2n1C1CCN(C(C)CC#N)CC1` (racemic) [Example 398, N-(2-{1-[1-(2-Cyano-1-methyl-ethyl)-piperidin-4-yl]-1,6-dihydro-1,3,5,6-tetraaza-as-indacen-2-yl}-ethyl)-N-methyl-acetamide] are 0.241 µM, 0.179 µM, 0.0208 µM and 0.047 µM.
On the same counts, the results for `CC(CC#N)N1CCC(n2c(CN3CCCC3=O)nc3cnc4[nH]ccc4c32)CC1` (racemic) [Example 399, 3-{4-[2-(2-Oxo-pyrrolidin-1-ylmethyl)-6H-1,3,5,6-tetraaza-as-indacen-1-yl]-piperidin-1-yl}-butyronitrile] are 0.179 µM, 0.125 µM, 0.0331 µM and 0.0971 µM.
Regarding `CC(=O)N1CCC(c2nc3cnc4[nH]ccc4c3n2C2CCN(C(C)CC#N)CC2)CC1` (racemic) [Example 400, 3-{4-[2-(1-Acetyl-piperidin-4-yl)-6H-1,3,5,6-tetraaza-as-indacen-1-yl]-piperidin-1-yl}-butyronitrile], the Ki at TYK2 amounted to 0.428 µM; on JAK3, 0.283 µM; on JAK1 it was 0.0626 µM; on JAK2 it was 0.115 µM.
The like results for `CC(CC#N)N1CCC(n2c(CC3CC3)nc3cnc4[nH]ccc4c32)CC1` (racemic) [Example 401, 3-[4-(2-Cyclopropylmethyl-6H-1,3,5,6-tetraaza-as-indacen-1-yl)-piperidin-1-yl]-butyronitrile] were, in that order, 0.0968 µM, 0.0354 µM, 0.00949 µM and 0.0228 µM.
In the case of `N#CCCN1CCC(n2c(C3CC3(F)F)nc3cnc4[nH]ccc4c32)CC1` (racemic) [Example 404, 3-{4-[2-(2,2-Difluoro-cyclopropyl)-6H-1,3,5,6-tetraaza-as-indacen-1-yl]-piperidin-1-yl}-propionitrile], the Ki is 0.1 µM on TYK2, 0.0293 µM at JAK3, 0.00727 µM at JAK1 and 0.018 µM at JAK2.
Take `N#CCCN1CCC(n2c(CC3CCCOC3)nc3cnc4[nH]ccc4c32)CC1` (racemic) [Example 409, 3-{4-[2-(Tetrahydro-pyran-3-ylmethyl)-6H-1,3,5,6-tetraaza-as-indacen-1-yl]-piperidin-1-yl}-propionitrile]: the Ki on TYK2 was determined as 0.321 µM; at JAK3, 0.126 µM; at JAK1, 0.0262 µM; at JAK2 it was 0.125 µM.
The like results for `CCC(COC)n1c(C)nc2cnc3[nH]ccc3c21` (racemic) [Example 415, 1-(1-Methoxymethyl-propyl)-2-methyl-1,6-dihydro-1,3,5,6-tetraaza-as-indacene] were, in that order, 0.919 µM, 0.109 µM, 0.115 µM and 0.233 µM.
On to `Cc1nc2cnc3[nH]ccc3c2n1C(C)CCO` (racemic) [Example 416, 3-(2-Methyl-6H-1,3,5,6-tetraaza-as-indacen-1-yl)-butan-1-ol], for which the inhibition constant (Ki) came out at 0.339 µM on TYK2, 0.0488 µM on JAK3, 0.0336 µM on JAK1 and 0.126 µM at JAK2.
On the same counts, the results for `CCC(COC)n1cnc2cnc3[nH]ccc3c21` (racemic) [Example 419, 1-(1-Methoxymethyl-propyl)-1,6-dihydro-1,3,5,6-tetraaza-as-indacene] are 0.812 µM, 0.16 µM, 0.144 µM and 0.198 µM.
`Cc1nc2cnc3[nH]ccc3c2n1C1CCN(Cc2ccccc2)CC1(F)F` (racemic) [Example 428, 1-(1-Benzyl-3,3-difluoro-piperidin-4-yl)-2-methyl-1,6-dihydro-1,3,5,6-tetraaza-as-indacene]: the Ki was 0.0127 µM on TYK2, 0.00162 µM on JAK3, 0.00064 µM on JAK1 and 0.00078 µM at JAK2.
On the same counts, the results for `CC(C(=O)N1CCC(n2cnc3cnc4[nH]ccc4c32)CC1)N(C)C` (racemic) [Example 438, 2-Dimethylamino-1-[4-(6H-1,3,5,6-tetraaza-as-indacen-1-yl)-piperidin-1-yl]-propan-1-one] are 0.823 µM, 2.38 µM, 0.0233 µM and 0.184 µM.
Turning to `N#CCC(=O)N1CCCC(n2cnc3cnc4[nH]ccc4c32)CC1` (racemic) [Example 485, 3-Oxo-3-[4-(6H-1,3,5,6-tetraaza-as-indacen-1-yl)-azepan-1-yl]-propionitrile], the inhibition constant (Ki) at TYK2 was 0.0066 µM; at JAK3, 0.019 µM; at JAK1, 0.00107 µM; on JAK2, 0.00191 µM.
